Reference: patent US20210130316A1, “MORPHINAN DERIVATIVES AND COMPOSITIONS COMPRISING THE SAME FOR TREATING AUTOIMMUNE, IN[…] INFECTION RELATED DISORDERS” (TAIWANJ PHARMACEUTICALS CO., LTD, priority 2017, published 2021)

What was measured:
[1] = target: T1, Toll-like receptor 4 (TLR4) (Homo sapiens, UniProt O00206+Q9Y6Y9); assay: NF-κB-inducible SEAP reporter assay of LPS-stimulated TLR4 activity in TLR4-expressing HEK293 cells; assay type: cell-based; conditions: for TLR-4 antagonist activity in words (summary of Table 3): 20 μM; for inhibition at 20 µM: compound 20 μM, LPS 10 ng/ml, 16-24 hours incubation, TLR4-expressing HEK293 cells, read-out: TLR-4 inhibition (%) Average
T1 construct: expressed in transfected cells; host or cells: HEK293
Experimental: Stimulation of the Toll-like receptor 4 (TLR4) was determined by assessing activation of the transcription factor NF-κB in HEK293 cells that were engineered to express TLR4. Assessment of TLR4 stimulation was based on the use of an NF-κB-inducible secreted alkaline phosphatase (SEAP) reporter system in which the SEAP reporter was under the control of a promoter inducible by NF-κB. Thus, the degree of activation of TLR4 can be indirectly quantified spectrophotometrically by measuring the amount of the SEAP reporter that is produced.
The TLR4-expressing cells were plated in HEK-Blue Detection (Invivogen, San Diego, Calif.) medium in a 96-well plate (25,000-50,000 cells/well). The cells were stimulated with lipopolysaccharides (LPS) alone or in combination with the compound of example 1. Cell culture without LPS and the compound of example 1 was defined as baseline control. To test whether the compound of example 1 could block that activation of the TLR4, the cells were treated with the compound of example 1 (20 μM) and LPS (final conc. 10 ng/ml/well). After a16-24 hours incubation period at 37° C. in a CO2 incubator, The signals of individual samples in 96-well plates were detected at O.D.650 nm with a Molecular Devices SpectraMax i3 Imaging Cytometer. The TLR4 activity was expressed in percentage of LPS alone-stimulated cells minus baseline control.

HEK293 cells = assay: Cell viability assay (MTT method); assay type: cell-based; conditions: compound 20 μM, percentage of viable LPS-stimulated cells
Experimental: HEK 293 cells (2.5-5.0×10^4 cells/well) were seeded in 96-well plate for overnight and treated with different compounds for 16-24 hours. Cell growth was determined by MTh-based colorimetric assays. Viability of the test cells treated with vehicle (0.5% DMSO) only was defined as 100% viable. Survival of cells after treatment with DETDs was calculated using the following formula:
Viable cell number (%)=OD570 (treated cell culture)/OD570 (vehicle control)×100.
The ell viability assay was performed by the MTT method. Cells were incubated with 45 μl of 5 mg/ml MTT for 1 hour at 37° C., and 150 μl of DMSO was added at the end of culture to dissolve the crystals. The signals of individual samples in 96-well plates were detected at O.D.570 nm with Molecular Device SpectraMax Imaging Cytometer. Cell viability was expressed in percentage of viable LPS-stimulated cells.

T1 sequence (O00206 24-839, species assumed): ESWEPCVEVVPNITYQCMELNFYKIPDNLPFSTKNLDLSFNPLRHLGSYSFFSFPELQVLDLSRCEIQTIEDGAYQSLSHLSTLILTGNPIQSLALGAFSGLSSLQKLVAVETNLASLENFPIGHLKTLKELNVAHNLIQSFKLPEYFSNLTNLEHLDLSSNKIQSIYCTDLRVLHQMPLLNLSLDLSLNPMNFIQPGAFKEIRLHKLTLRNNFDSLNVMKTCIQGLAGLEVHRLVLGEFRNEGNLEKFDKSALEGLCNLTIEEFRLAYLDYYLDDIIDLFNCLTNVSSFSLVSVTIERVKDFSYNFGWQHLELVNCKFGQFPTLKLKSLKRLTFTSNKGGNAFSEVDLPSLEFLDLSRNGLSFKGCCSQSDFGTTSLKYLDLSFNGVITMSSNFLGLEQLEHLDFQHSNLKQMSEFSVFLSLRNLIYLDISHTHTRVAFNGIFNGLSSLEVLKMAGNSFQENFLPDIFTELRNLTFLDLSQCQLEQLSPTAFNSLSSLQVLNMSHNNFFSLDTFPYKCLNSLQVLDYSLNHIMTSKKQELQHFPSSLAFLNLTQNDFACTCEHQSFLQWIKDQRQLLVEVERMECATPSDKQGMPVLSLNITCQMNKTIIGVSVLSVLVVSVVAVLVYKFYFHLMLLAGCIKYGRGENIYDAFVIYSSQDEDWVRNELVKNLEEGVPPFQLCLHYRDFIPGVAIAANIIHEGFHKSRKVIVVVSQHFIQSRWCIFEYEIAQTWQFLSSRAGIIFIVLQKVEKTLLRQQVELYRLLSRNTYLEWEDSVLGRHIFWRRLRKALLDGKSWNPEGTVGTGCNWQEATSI
T1 sequence (Q9Y6Y9 17-160 limits assumed, species assumed): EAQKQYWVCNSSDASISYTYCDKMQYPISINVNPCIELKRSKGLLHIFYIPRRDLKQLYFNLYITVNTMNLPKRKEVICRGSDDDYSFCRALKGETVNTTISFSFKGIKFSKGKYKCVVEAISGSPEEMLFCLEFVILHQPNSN

## O=[N+]([O-])c1ccc(N2CC[C@@]34CCCC[C@@H]3[C@@H]2Cc2ccc(O)cc24)cc1 [Compound 3]
[1]
  TLR-4 antagonist activity in words (summary of Table 3): weak to negligible activity towards TLR-4
  inhibition at 20 µM: 0%
HEK293 cells
  Cell viability (%) Average: 82.1%

## Nc1ccc(N2CC[C@@]34CCCC[C@@H]3[C@@H]2Cc2ccc(O)cc24)cc1 [Compound 4]
[1]
  TLR-4 antagonist activity in words (summary of Table 3): strong antagonists of TLR-4
  inhibition at 20 µM: 90.5%
HEK293 cells
  Cell viability (%) Average: 92.2%

## COc1ccc2c(c1)[C@]13CCCC[C@@H]1[C@H](C2)N(c1ccc([N+](=O)[O-])c(N)c1)CC3 [Compound 5]
[1]
  TLR-4 antagonist activity in words (summary of Table 3): weak to negligible activity towards TLR-4
  inhibition at 20 µM: 13.2%
HEK293 cells
  Cell viability (%) Average: 110.9%

## COc1ccc2c(c1)[C@]13CCCC[C@@H]1[C@H](C2)N(c1ccc(N)cc1)CC3 [Compound 6]
[1]
  TLR-4 antagonist activity in words (summary of Table 3): moderate to mild inhibitory activity toward TLR-4
  inhibition at 20 µM: 37.7%
HEK293 cells
  Cell viability (%) Average: 83.1%

## CCOC(=O)Nc1ccc(N2CC[C@@]34CCCC[C@@H]3[C@@H]2Cc2ccc(OC)cc24)cc1 [Compound 7]
[1]
  TLR-4 antagonist activity in words (summary of Table 3): weak to negligible activity towards TLR-4
  inhibition at 20 µM: 0%
HEK293 cells
  Cell viability (%) Average: 79.3%

## COc1ccc2c(c1)[C@]13CCCC[C@@H]1[C@H](C2)N(c1ccc(NC(=O)CCCc2ccccc2)cc1)CC3 [Compound 8]
[1]
  TLR-4 antagonist activity in words (summary of Table 3): weak to negligible activity towards TLR-4
  inhibition at 20 µM: 6%
HEK293 cells
  Cell viability (%) Average: 104.7%

## COc1ccc2c(c1)[C@]13CCCC[C@@H]1[C@H](C2)N(S(=O)(=O)c1ccc([N+](=O)[O-])cc1)CC3 [Compound 9]
[1]
  TLR-4 antagonist activity in words (summary of Table 3): moderate to mild inhibitory activity toward TLR-4
  inhibition at 20 µM: 23.7%
HEK293 cells
  Cell viability (%) Average: 104.1%

## COc1ccc2c(c1)[C@]13CCCC[C@@H]1[C@H](C2)N(S(=O)(=O)c1ccc(N)cc1)CC3 [Compound 10]
[1]
  TLR-4 antagonist activity in words (summary of Table 3): moderate to mild inhibitory activity toward TLR-4
  inhibition at 20 µM: 30%
HEK293 cells
  Cell viability (%) Average: 111.6%

## COc1ccc2c(c1)[C@]13CCCC[C@@H]1[C@H](C2)N(CC(O)COc1ccccc1)CC3 (stereo partly drawn) [Compound 11]
[1]
  TLR-4 antagonist activity in words (summary of Table 3): remarkable inhibitions on TLR-4
  inhibition at 20 µM: 54.5%
HEK293 cells
  Cell viability (%) Average: 88.8%

## COc1ccc2c(c1)[C@]13CCCC[C@@H]1[C@H](C2)N(CC(O)CSc1ccccc1)CC3 (stereo partly drawn) [Compound 12]
[1]
  TLR-4 antagonist activity in words (summary of Table 3): remarkable inhibitions on TLR-4
  inhibition at 20 µM: 59.1%
HEK293 cells
  Cell viability (%) Average: 81.3%

## COc1ccc2c(c1)[C@]13CCCC[C@@H]1[C@H](C2)N(CC(O)CN1CCOCC1)CC3 (stereo partly drawn) [Compound 13]
[1]
  TLR-4 antagonist activity in words (summary of Table 3): weak to negligible activity towards TLR-4
  inhibition at 20 µM: 2.8%
HEK293 cells
  Cell viability (%) Average: 101.5%

## CC(=O)Nc1ccc(S(=O)(=O)N2CC[C@@]34CCCC[C@@H]3[C@@H]2Cc2ccc(O)cc24)cc1 [Compound 15]
[1]
  TLR-4 antagonist activity in words (summary of Table 3): moderate to mild inhibitory activity toward TLR-4
  inhibition at 20 µM: 45.1%
HEK293 cells
  Cell viability (%) Average: 104.0%

## Nc1ccc(S(=O)(=O)N2CC[C@@]34CCCC[C@@H]3[C@@H]2Cc2ccc(O)cc24)cc1 [Compound 16]
[1]
  TLR-4 antagonist activity in words (summary of Table 3): moderate to mild inhibitory activity toward TLR-4
  inhibition at 20 µM: 42.1%
HEK293 cells
  Cell viability (%) Average: 75.5%

## Nc1cc(N2CC[C@@]34CCCC[C@@H]3[C@@H]2Cc2ccc(O)cc24)ccc1[N+](=O)[O-] [Compound 17]
[1]
  TLR-4 antagonist activity in words (summary of Table 3): remarkable inhibitions on TLR-4
  inhibition at 20 µM: 53.1%
HEK293 cells
  Cell viability (%) Average: 116.0%

## Nc1ccc(N2CC[C@@]34CCCC[C@@H]3[C@@H]2Cc2ccc(O)cc24)cc1N [Compound 18]
[1]
  TLR-4 antagonist activity in words (summary of Table 3): remarkable inhibitions on TLR-4
  inhibition at 20 µM: 57.7%
HEK293 cells
  Cell viability (%) Average: 143.0%

## CC(C)N(c1ccc(N2CC[C@@]34CCCC[C@@H]3[C@@H]2Cc2ccc(O)cc24)cc1)C(C)C [Compound 19]
[1]
  TLR-4 antagonist activity in words (summary of Table 3): remarkable inhibitions on TLR-4
  inhibition at 20 µM: 75.3%
HEK293 cells
  Cell viability (%) Average: 99.2%

## CC(C)Nc1ccc(N2CC[C@@]34CCCC[C@@H]3[C@@H]2Cc2ccc(O)cc24)cc1 [Compound 20]
[1]
  TLR-4 antagonist activity in words (summary of Table 3): strong antagonists of TLR-4
  inhibition at 20 µM: 99.8%
HEK293 cells
  Cell viability (%) Average: 89.9%

## Nc1ccc(N2CC[C@@]34CCCC[C@@H]3[C@@H]2Cc2ccc(O)cc24)c(F)c1 [Compound 21]
[1]
  TLR-4 antagonist activity in words (summary of Table 3): weak to negligible activity towards TLR-4
  inhibition at 20 µM: 13.8%
HEK293 cells
  Cell viability (%) Average: 97.4%

## Cc1cc(N2CC[C@@]34CCCC[C@@H]3[C@@H]2Cc2ccc(O)cc24)ccc1N [Compound 22]
[1]
  TLR-4 antagonist activity in words (summary of Table 3): remarkable inhibitions on TLR-4
  inhibition at 20 µM: 64.2%
HEK293 cells
  Cell viability (%) Average: 101.7%

## Nc1ccc(N2CC[C@@]34CCCC[C@@H]3[C@@H]2Cc2ccc(O)cc24)c(C(F)(F)F)c1 [Compound 23]
[1]
  TLR-4 antagonist activity in words (summary of Table 3): weak to negligible activity towards TLR-4
  inhibition at 20 µM: 22.9%
HEK293 cells
  Cell viability (%) Average: 96.2%

## O=[N+]([O-])c1ccc(N2CC[C@@]34CCCC[C@@H]3[C@@H]2Cc2ccc(O)cc24)nc1 [Compound 24]
[1]
  TLR-4 antagonist activity in words (summary of Table 3): moderate to mild inhibitory activity toward TLR-4
  inhibition at 20 µM: 43.5%
HEK293 cells
  Cell viability (%) Average: 103.3%

## Nc1ccc(N2CC[C@@]34CCCC[C@@H]3[C@@H]2Cc2ccc(O)cc24)nc1 [Compound 25]
[1]
  TLR-4 antagonist activity in words (summary of Table 3): weak to negligible activity towards TLR-4
  inhibition at 20 µM: 13.3%
HEK293 cells
  Cell viability (%) Average: 100.8%
